Test results reported in patent publication US20110245249A1, “Heterocyclically Substituted Anilinopyrimidines” (Bayer CropScience AG, priority 2008, published 2011).

Experiment: logP by HPLC on reversed-phase columns (EEC Directive 79/831 Annex V.A8)
Assay type: physicochemical
Conditions: for log p [a]: pH 2.3
Protocol: The logP values were measured in accordance with EEC Directive 79/831 Annex V.A8 by HPLC (High Performance Liquid Chromatography) on reversed-phase columns (C 18) using the methods below:
[a] The determination was carried out in the acidic range at pH 2.3 using the mobile phases 0.1% aqueous phosphoric acid and acetronitrile linear gradient from 10% acetonitrile to 95% acetronitrile. [b] The LC-MS determination in the acid range was carried out at pH 2.7 using the mobile phases 0.1% aqueous formic acid and acetonitrile (contains 0.1% formic acid) linear gradient from 10% acetonitrile to 95% acetonitrile. [c] The LC-MS determination in the neutral range was carried out at pH 7.8 using the mobile phases 0.001 molar aqueous ammonium bicarbonate solution and acetonitrile linear gradient from 10% acetonitrile to 95% acetonitrile.

Clc1cnc(Nc2cccc(C3OCC(C4CC4)CO3)c2)nc1NC1CC1 (stereo not shown) [Example 93]
log p [b] (pH 2.7): 2.6 | log p [c] (pH 7.8): 3.91

Clc1cnc(Nc2cccc(C3OCCC(c4ccccc4)O3)c2)nc1NC1CC1 (stereo not shown) [Example 94]
log p [b] (pH 2.7): 2.83 | log p [c] (pH 7.8): 4.11

CC(C)(C)OCC1COC(c2cccc(Nc3ncc(Cl)c(NC4CC4)n3)c2)O1 (stereo not shown) [Example 95]
log p [b] (pH 2.7): 2.76 | log p [c] (pH 7.8): 4.08

CCCOCC1COC(c2cccc(Nc3ncc(Cl)c(NC4CC4)n3)c2)O1 (stereo not shown) [Example 96]
log p [b] (pH 2.7): 2.51 | log p [c] (pH 7.8): 3.79

CC1CCOC(c2cccc(Nc3ncc(Cl)c(NC4CC4)n3)c2)O1 (stereo not shown) [Example 97]
log p [b] (pH 2.7): 2 | log p [c] (pH 7.8): 3.25

CC1OC(c2cccc(Nc3ncc(Cl)c(NC4CC4)n3)c2)OC(C)C1C (stereo not shown) [Example 98]
log p [b] (pH 2.7): 2.77 | log p [c] (pH 7.8): 4.21

Clc1cnc(Nc2cccc(C3OCC(Cl)CO3)c2)nc1NC1CC1 (stereo not shown) [Example 99]
log p [b] (pH 2.7): 2.15 | log p [c] (pH 7.8): 3.33

CC1(C)CCOC(c2cccc(Nc3ncc(Cl)c(NC4CC4)n3)c2)O1 (stereo not shown) [Example 100]
log p [b] (pH 2.7): 2.22 | log p [c] (pH 7.8): 3.57

CC1COC(c2cccc(Nc3ncc(Cl)c(NC4CC4)n3)c2)OC1 (stereo not shown) [Example 101]
log p [b] (pH 2.7): 2.1 | log p [c] (pH 7.8): 3.35

CC1(C)CC(C)(C)OC(c2cccc(Nc3ncc(Cl)c(NC4CC4)n3)c2)O1 [Example 102]
log p [b] (pH 2.7): 2.86 | log p [c] (pH 7.8): 4.32

Clc1cnc(Nc2cccc(C3OCC4(CCC4)CO3)c2)nc1NC1CC1 [Example 103]
log p [b] (pH 2.7): 2.6 | log p [c] (pH 7.8): 3.62

COCC1COC(c2cccc(Nc3ncc(Br)c(NC4CC4)n3)c2)O1 (stereo not shown) [Example 104]
log p [b] (pH 2.7): 1.9 | log p [c] (pH 7.8): 3.02

COCC1COC(c2cccc(Nc3ncc(C(F)(F)F)c(NC4CCC4)n3)c2)O1 (stereo not shown) [Example 106]
log p [b] (pH 2.7): 3.22 | log p [c] (pH 7.8): 3.77

C=CCOCC1COC(c2cccc(Nc3ncc(Br)c(NC4CC4)n3)c2)O1 (stereo not shown) [Example 107]
log p [a]: 2.01 | log p [b] (pH 2.7): 2.43

C=CCOCC1COC(c2cccc(Nc3ncc(C(F)(F)F)c(NC4CC4)n3)c2)O1 (stereo not shown) [Example 108]
log p [b] (pH 2.7): 3.35 | log p [c] (pH 7.8): 3.79

C=CCOCC1COC(c2cccc(Nc3ncc(C(F)(F)F)c(NC4CCC4)n3)c2)O1 (stereo not shown) [Example 109]
log p [b] (pH 2.7): 3.84 | log p [c] (pH 7.8): 4.35

Brc1cnc(Nc2cccc(C3OC4COCC4O3)c2)nc1NC1CC1 (stereo not shown) [Example 110]
log p [c] (pH 7.8): 2.66[c]

FC(F)(F)c1cnc(Nc2cccc(C3OC4COCC4O3)c2)nc1NC1CC1 (stereo not shown) [Example 111]
log p [a]: 1.94 | log p [c] (pH 7.8): 2.87

FC(F)(F)c1cnc(Nc2cccc(C3OC4COCC4O3)c2)nc1NC1CCC1 (stereo not shown) [Example 112]
log p [b] (pH 2.7): 2.79 | log p [c] (pH 7.8): 3.37

CCC1COC(c2cccc(Nc3ncc(C(F)(F)F)c(NC4CCC4)n3)c2)O1 (stereo not shown) [Example 113]
log p [b] (pH 2.7): 4.06 | log p [c] (pH 7.8): 4.56

COCC1COC(c2cccc(Nc3ncc(Cl)c(NC4CCC4)n3)c2)O1 (stereo not shown) [Example 114]
log p [b] (pH 2.7): 2.09 | log p [c] (pH 7.8): 3.42

COCC1COC(c2cccc(Nc3ncc(Br)c(NC4CCC4)n3)c2)O1 (stereo not shown) [Example 115]
log p [b] (pH 2.7): 2.19 | log p [c] (pH 7.8): 3.61

C=CCOCC1COC(c2cccc(Nc3ncc(Cl)c(NC4CCC4)n3)c2)O1 (stereo not shown) [Example 116]
log p [b] (pH 2.7): 2.59 | log p [c] (pH 7.8): 4.07

C=CCOCC1COC(c2cccc(Nc3ncc(Br)c(NC4CCC4)n3)c2)O1 (stereo not shown) [Example 117]
log p [b] (pH 2.7): 2.77 | log p [c] (pH 7.8): 4.24

Clc1cnc(Nc2cccc(C3OC4COCC4O3)c2)nc1NC1CCC1 (stereo not shown) [Example 118]
log p [b] (pH 2.7): 1.77 | log p [c] (pH 7.8): 3.04

Brc1cnc(Nc2cccc(C3OC4COCC4O3)c2)nc1NC1CCC1 (stereo not shown) [Example 119]
log p [b] (pH 2.7): 1.91 | log p [c] (pH 7.8): 3.23

CC(C)(C)C1CCOC(c2cccc(Nc3ncc(Br)c(NC4CC4)n3)c2)O1 (stereo not shown) [Example 120]
log p [b] (pH 2.7): 3.34 | log p [c] (pH 7.8): 4.7

CC(C)(C)C1CCOC(c2cccc(Nc3ncc(Cl)c(NC4CC4)n3)c2)O1 (stereo not shown) [Example 121]
log p [b] (pH 2.7): 3.16[b]

CC(C)(C)C1CCOC(c2cccc(Nc3ncc(C(F)(F)F)c(NC4CC4)n3)c2)O1 (stereo not shown) [Example 122]
log p [b] (pH 2.7): 4.44 | log p [c] (pH 7.8): 4.82

Clc1cnc(Nc2cccc(C3OCC4(CC4)CO3)c2)nc1NC1CC1 [Example 123]
log p [b] (pH 2.7): 2.09 | log p [c] (pH 7.8): 3.32

CC1CC(C(F)(F)F)OC(c2cccc(Nc3ncc(Cl)c(NC4CC4)n3)c2)O1 (stereo not shown) [Example 124]
log p [b] (pH 2.7): 2.84[b]

CCOC1COC(c2cccc(Nc3ncc(Cl)c(NC4CC4)n3)c2)OC1 (stereo not shown) [Example 125]
log p [b] (pH 2.7): 2.07 | log p [c] (pH 7.8): 3.27

Clc1cnc(Nc2cccc(C3OCCCCO3)c2)nc1NC1CC1 [Example 126]
log p [b] (pH 2.7): 2.14 | log p [c] (pH 7.8): 3.48

Clc1cnc(Nc2cccc(C3OCCCS3)c2)nc1NC1CC1 (stereo not shown) [Example 127]
log p [b] (pH 2.7): 2.1 | log p [c] (pH 7.8): 3.33

Fc1ccc(Nc2ncc(Cl)c(NC3CC3)n2)cc1C1OCCO1 [Example 128]
log p [b] (pH 2.7): 1.75 | log p [c] (pH 7.8): 2.88

CC1CC1Nc1nc(Nc2cccc(C3OCCO3)c2)ncc1C(F)(F)F (stereo not shown) [Example 129]
log p [b] (pH 2.7): 3.03 | log p [c] (pH 7.8): 3.58

COCC1COC(c2cccc(Nc3ncc(C(F)(F)F)c(NC4CC4C)n3)c2)O1 (stereo not shown) [Example 130]
log p (pH 2.7): 3.18 | log p (pH 7.8): 3.7

CC1CC1Nc1nc(Nc2cccc(C3OCCO3)c2)ncc1Br (stereo not shown) [Example 131]
log p (pH 7.8): 3.33[c]

COCC1COC(c2cccc(Nc3ncc(Br)c(NC4CC4C)n3)c2)O1 (stereo not shown) [Example 132]
log p (pH 2.7): 2.19 | log p (pH 7.8): 3.52

CC1CC1Nc1nc(Nc2cccc(C3OCCCO3)c2)ncc1Br (stereo not shown) [Example 133]
log p (pH 2.7): 2.18 | log p (pH 7.8): 3.53

C#CCNc1nc(Nc2cccc(C3OCCO3)c2)ncc1Cl [Example 134]
log p (pH 2.7): 1.58 | log p (pH 7.8): 2.37

Clc1cnc(Nc2ccc(C3OCCCO3)cc2)nc1NC1CC1 [Example 135]
log p (pH 2.7): 1.72 | log p (pH 7.8): 2.82

COc1ccc(Nc2ncc(C(F)(F)F)c(NC3CC3)n2)cc1C1OCCCO1 [Example 136]
log p (pH 2.7): 2.38 | log p (pH 7.8): 3.18
